Experimental data taken from article PMC6032158, “Structure–Activity Relationship of Piplartine and Synthetic Analogues against Schistosoma mansoni and Cytotoxicity to Mammalian Cells” (International Journal of Molecular Sciences, 2018).

Tests used:
[1] = system: mouse BALB/cN macrophage (J774A.1) cell line; experiment: Cell viability by flow cytometry in macrophages; settings: 24 h, 25, 100 and 400 µg/mL, vs DMEM control
[2] = system: murine fibroblast (NIH-3T3) cells; experiment: MTT cytotoxicity assay in murine fibroblasts; type: cell-based
Experimental: Next, the medium was removed and various concentrations (25–800 µg/mL) of samples reconstituted in 3% DMSO were applied. DMSO (3%) was used as a control. The plates were incubated for 24 h. Next, 15 µL of MTT solution (5 mg/mL in phosphate buffer) was added to each well and the plates were incubated for 2 h. Medium was discarded and 100 µL of DMSO was added to each well. Absorbance was determined using a spectrophotometer with a microplate reader at 595 nm (Molecular Devices Corporation, Sunnyvale, CA, USA).

[3] = system: 49-day-old S. mansoni adult worms; experiment: In vitro experiments with adult worms of S. mansoni (mortality, motor activity); type: cell-based, Schistosoma mansoni; settings: for Dead Worms (%) F / Motor Activity Reduction (%) Significant F / Motor Activity Reduction (%) Slight F: female worms; for Dead Worms (%) M / Motor Activity Reduction (%) Significant M / Motor Activity Reduction (%) Slight M: male worms
Experimental: The Belo Horizonte (BH) strain of S. mansoni was maintained in Biomphalaria glabrata snails and Mesocricetus auratus hamsters at the Adolfo Lutz Institute (São Paulo, Brazil) according to standard procedures. Detailed methods for the infection of molluscs and hamsters, as well as for the recovery of parasites, were as described previously. Briefly, the intermediate host snails were exposed to light for approximately 3 h and cercariae of S. mansoni were subsequently harvested. […] All animals were handled in strict accordance with good animal practice as defined by the Animal Use Ethics Committee. The preparations and culture of schistosomes was performed as previously described. Briefly, hamsters were killed 49 days after infection for the recovery of adult schistosomes. Next, fresh adult worm pairs (male and female) were washed and placed in a 24-well culture plate (TPP, St. […] Adult schistosomes were maintained continuously in medium (with or without drugs) for 96 h as described below. In vitro assays in S. mansoni adults were performed with mated males and females. The worm pairs obtained from the infusion hamsters were washed twice with RPMI 1640 medium containing 200 U/mL penicillin, 200 μg/mL streptomycin and 2 μg/mL amphotericin B (Vitrocell, Campinas, Brazil). The mated parasites were then transferred into 24-well cell culture plates (TPP, St. […] Cultures of adult worms were monitored by microscopy or magnifying glass. The effect of the drug was assessed with emphasis on changes in worm motor activity and death of worms as previously described.

For COc1cc(/C=C/C(=O)N(C(=O)NC2CCCCC2)C2CCCCC2)cc(OC)c1OC [Compound 1M], the “effect on J774A.1 cell viability (in words)” value [1] was “significantly altered (p < 0.05) cell viability in comparison with the negative control, but not in a toxic manner”, the “effect on NIH-3T3 cell viability (in words)” value ([2]; MTT, 24 h exposure, 25 to 800 µg/mL) was “considerable reduction in cell viability at concentrations of 400 and 800 μg/mL” and the Emax at 800 µg/mL ([2]; Mus musculus, NIH3T3, 24 h, decrease in cell viability at the maximum concentration tested (800 μg/mL), NIH-3T3, 24 h) was 70.9 ± 1.2%. For the same molecule, the “Dead Worms (%) F” value ([3]; 5 µM, 24 h) was 0%, the “Motor Activity Reduction (%) Significant F” value ([3]; 5 µM, 24 h) was 0% and the “Motor Activity Reduction (%) Slight F” value ([3]; 5 µM, 24 h) was 0%. The “Dead Worms (%) M” value ([3]; 5 µM, 24 h) was 0%, the “Motor Activity Reduction (%) Significant M” value ([3]; 5 µM, 24 h) was 0% and the “Motor Activity Reduction (%) Slight M” value ([3]; 5 µM, 24 h) was 0%. The “Dead Worms (%) F” value ([3]; 5 µM, 48 h) was 0%, the “Motor Activity Reduction (%) Significant F” value ([3]; 5 µM, 48 h) was 0% and the “Motor Activity Reduction (%) Slight F” value ([3]; 5 µM, 48 h) was 0%. For the same molecule, the “Dead Worms (%) M” value ([3]; 5 µM, 48 h) was 0%, the “Motor Activity Reduction (%) Significant M” value ([3]; 5 µM, 48 h) was 0% and the “Motor Activity Reduction (%) Slight M” value ([3]; 5 µM, 48 h) was 0%. For the same molecule, the “Dead Worms (%) F” value ([3]; 5 µM, 72 h) was 0%, the “Motor Activity Reduction (%) Significant F” value ([3]; 5 µM, 72 h) was 0% and the “Motor Activity Reduction (%) Slight F” value ([3]; 5 µM, 72 h) was 0%. For the same molecule, the “Dead Worms (%) M” value ([3]; 5 µM, 72 h) was 0%, the “Motor Activity Reduction (%) Significant M” value ([3]; 5 µM, 72 h) was 0% and the “Motor Activity Reduction (%) Slight M” value ([3]; 5 µM, 72 h) was 0%. For the same molecule, the “Dead Worms (%) F” value ([3]; 5 µM, 96 h) was 0%, the “Motor Activity Reduction (%) Significant F” value ([3]; 5 µM, 96 h) was 0% and the “Motor Activity Reduction (%) Slight F” value ([3]; 5 µM, 96 h) was 0%. For the same molecule, the “Dead Worms (%) M” value ([3]; 5 µM, 96 h) was 0%, the “Motor Activity Reduction (%) Significant M” value ([3]; 5 µM, 96 h) was 0% and the “Motor Activity Reduction (%) Slight M” value ([3]; 5 µM, 96 h) was 0%. For the same molecule, the “Dead Worms (%) F” value ([3]; 10 µM, 24 h) was 0%, the “Motor Activity Reduction (%) Significant F” value ([3]; 10 µM, 24 h) was 0% and the “Motor Activity Reduction (%) Slight F” value ([3]; 10 µM, 24 h) was 0%. The “Dead Worms (%) M” value ([3]; 10 µM, 24 h) was 0%, the “Motor Activity Reduction (%) Significant M” value ([3]; 10 µM, 24 h) was 0% and the “Motor Activity Reduction (%) Slight M” value ([3]; 10 µM, 24 h) was 0%. For the same molecule, the “Dead Worms (%) F” value ([3]; 10 µM, 48 h) was 0%, the “Motor Activity Reduction (%) Significant F” value ([3]; 10 µM, 48 h) was 0% and the “Motor Activity Reduction (%) Slight F” value ([3]; 10 µM, 48 h) was 0%. The “Dead Worms (%) M” value ([3]; 10 µM, 48 h) was 0%, the “Motor Activity Reduction (%) Significant M” value ([3]; 10 µM, 48 h) was 0% and the “Motor Activity Reduction (%) Slight M” value ([3]; 10 µM, 48 h) was 0%. For the same molecule, the “Dead Worms (%) F” value ([3]; 10 µM, 72 h) was 0%, the “Motor Activity Reduction (%) Significant F” value ([3]; 10 µM, 72 h) was 0% and the “Motor Activity Reduction (%) Slight F” value ([3]; 10 µM, 72 h) was 0%. The “Dead Worms (%) M” value ([3]; 10 µM, 72 h) was 0%, the “Motor Activity Reduction (%) Significant M” value ([3]; 10 µM, 72 h) was 0% and the “Motor Activity Reduction (%) Slight M” value ([3]; 10 µM, 72 h) was 0%. For the same molecule, the “Dead Worms (%) F” value ([3]; 10 µM, 96 h) was 0%, the “Motor Activity Reduction (%) Significant F” value ([3]; 10 µM, 96 h) was 0% and the “Motor Activity Reduction (%) Slight F” value ([3]; 10 µM, 96 h) was 0%. The “Dead Worms (%) M” value ([3]; 10 µM, 96 h) was 0%, the “Motor Activity Reduction (%) Significant M” value ([3]; 10 µM, 96 h) was 0% and the “Motor Activity Reduction (%) Slight M” value ([3]; 10 µM, 96 h) was 0%. For the same molecule, the “Dead Worms (%) F” value ([3]; 25 µM, 24 h) was 0%, the “Motor Activity Reduction (%) Significant F” value ([3]; 25 µM, 24 h) was 0% and the “Motor Activity Reduction (%) Slight F” value ([3]; 25 µM, 24 h) was 0%. The “Dead Worms (%) M” value ([3]; 25 µM, 24 h) was 0%, the “Motor Activity Reduction (%) Significant M” value ([3]; 25 µM, 24 h) was 0% and the “Motor Activity Reduction (%) Slight M” value ([3]; 25 µM, 24 h) was 0%. The “Dead Worms (%) F” value ([3]; 25 µM, 48 h) was 0%, the “Motor Activity Reduction (%) Significant F” value ([3]; 25 µM, 48 h) was 0% and the “Motor Activity Reduction (%) Slight F” value ([3]; 25 µM, 48 h) was 0%. The “Dead Worms (%) M” value ([3]; 25 µM, 48 h) was 0%, the “Motor Activity Reduction (%) Significant M” value ([3]; 25 µM, 48 h) was 0% and the “Motor Activity Reduction (%) Slight M” value ([3]; 25 µM, 48 h) was 0%. For the same molecule, the “Dead Worms (%) F” value ([3]; 25 µM, 72 h) was 0%, the “Motor Activity Reduction (%) Significant F” value ([3]; 25 µM, 72 h) was 0% and the “Motor Activity Reduction (%) Slight F” value ([3]; 25 µM, 72 h) was 0%. For the same molecule, the “Dead Worms (%) M” value ([3]; 25 µM, 72 h) was 0%, the “Motor Activity Reduction (%) Significant M” value ([3]; 25 µM, 72 h) was 0% and the “Motor Activity Reduction (%) Slight M” value ([3]; 25 µM, 72 h) was 0%. For the same molecule, the “Dead Worms (%) F” value ([3]; 25 µM, 96 h) was 0%, the “Motor Activity Reduction (%) Significant F” value ([3]; 25 µM, 96 h) was 0% and the “Motor Activity Reduction (%) Slight F” value ([3]; 25 µM, 96 h) was 0%. The “Dead Worms (%) M” value ([3]; 25 µM, 96 h) was 0%, the “Motor Activity Reduction (%) Significant M” value ([3]; 25 µM, 96 h) was 0% and the “Motor Activity Reduction (%) Slight M” value ([3]; 25 µM, 96 h) was 0%. The “Dead Worms (%) F” value ([3]; 50 µM, 24 h) was 0%, the “Motor Activity Reduction (%) Significant F” value ([3]; 50 µM, 24 h) was 0% and the “Motor Activity Reduction (%) Slight F” value ([3]; 50 µM, 24 h) was 0%. The “Dead Worms (%) M” value ([3]; 50 µM, 24 h) was 0%, the “Motor Activity Reduction (%) Significant M” value ([3]; 50 µM, 24 h) was 0% and the “Motor Activity Reduction (%) Slight M” value ([3]; 50 µM, 24 h) was 0%. For the same molecule, the “Dead Worms (%) F” value ([3]; 50 µM, 48 h) was 0%, the “Motor Activity Reduction (%) Significant F” value ([3]; 50 µM, 48 h) was 0% and the “Motor Activity Reduction (%) Slight F” value ([3]; 50 µM, 48 h) was 0%. For the same molecule, the “Dead Worms (%) M” value ([3]; 50 µM, 48 h) was 0%, the “Motor Activity Reduction (%) Significant M” value ([3]; 50 µM, 48 h) was 0% and the “Motor Activity Reduction (%) Slight M” value ([3]; 50 µM, 48 h) was 0%. The “Dead Worms (%) F” value ([3]; 50 µM, 72 h) was 0%, the “Motor Activity Reduction (%) Significant F” value ([3]; 50 µM, 72 h) was 0% and the “Motor Activity Reduction (%) Slight F” value ([3]; 50 µM, 72 h) was 0%. The “Dead Worms (%) M” value ([3]; 50 µM, 72 h) was 0%, the “Motor Activity Reduction (%) Significant M” value ([3]; 50 µM, 72 h) was 0% and the “Motor Activity Reduction (%) Slight M” value ([3]; 50 µM, 72 h) was 0%. The “Dead Worms (%) F” value ([3]; 50 µM, 96 h) was 0%, the “Motor Activity Reduction (%) Significant F” value ([3]; 50 µM, 96 h) was 0% and the “Motor Activity Reduction (%) Slight F” value ([3]; 50 µM, 96 h) was 0%. The “Dead Worms (%) M” value ([3]; 50 µM, 96 h) was 0%, the “Motor Activity Reduction (%) Significant M” value ([3]; 50 µM, 96 h) was 0% and the “Motor Activity Reduction (%) Slight M” value ([3]; 50 µM, 96 h) was 0%. The “activity against S. mansoni adult worms (in words)” value ([3]; analogues 50, 25, 10 and 5 μM, piplartine 5 and 10 μM, up to 96 h) was “did not present biological activity against the S. mansoni parasite”.
